# Reference: patent publication US11053251B2, “GPR35 modulators” (Prometheus Biosciences, Inc., priority 2019, dated 2021)
# Target: Human GPR35 (Homo sapiens, UniProt Q9HC97, S294R)
# Assay: Alternative Beta-Arrestin Assay (JumpIn 294R Tango U2OS cells, LiveBLAzer-FRET B/G)
# Assay type: cell-based
# Conditions: Human GPR35 expressing JumpIn 294R Tango U2OS cells, 5 hours treatment
# Description: Human GPR35 expressing JumpIn (Thermo Fisher) 294R Tango U2OS cells were plated in 384-well format in clear bottom plates at a cell density of 10,000 cells/well and allowed to grow overnight. The next day, cells were treated with serially diluted test compounds for 5 hours. LiveBLAzer-FRET B/G (CCF4-AM) detection reagents were then added and cells were allowed to incubate for 2 hours before reading plates on a BioTek Cytation 5 plate reader. Zaprinast was used as a positive control for dose-response curves. In order to determine EC50 values, data w ere fit to a four-parameter dose-response curves.
# Human GPR35, sequence (Q9HC97 whole entry S294R): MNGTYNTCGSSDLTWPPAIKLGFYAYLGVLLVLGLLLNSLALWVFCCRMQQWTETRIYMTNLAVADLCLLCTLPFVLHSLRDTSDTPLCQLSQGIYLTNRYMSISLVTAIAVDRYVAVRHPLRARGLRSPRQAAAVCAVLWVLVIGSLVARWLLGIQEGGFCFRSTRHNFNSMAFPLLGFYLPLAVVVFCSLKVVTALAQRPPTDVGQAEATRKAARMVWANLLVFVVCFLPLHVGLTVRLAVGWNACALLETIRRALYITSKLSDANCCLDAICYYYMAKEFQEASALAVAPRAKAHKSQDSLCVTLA
row,EC50,Structure (SMILES)
1,≤ 10 µM,"CCOc1cc(-c2cccc(O[C@H](C)C(=O)O)c2)ccc1-c1nc2[nH]nnc2c(=O)[nH]1 (single isomer, unassigned) [Compound 251]"
2,≤ 10 µM,"CCOc1cc(-c2cccc(C[C@H](OC)C(=O)O)c2)ccc1-c1nc2[nH]nnc2c(=O)[nH]1 [Compound 283, (S)-3-(3′-ethoxy-4′-(7-oxo-6,7-dihydro-3H-[1,2,3]triazolo[4,5-d]pyrimidin-5-yl)-[1,1′-biphenyl]-3-yl)-2-methoxypropanoic acid]"
3,≤ 10 µM,"CN(C)c1cc(-c2nc3[nH]nnc3c(=O)[nH]2)ccc1-c1ccc(C(=O)O)cc1 [Compound 288, 2′-(dimethylamino)-4′-(7-oxo-6,7-dihydro-3H-[1,2,3]triazolo[4,5-d]pyrimidin-5-yl)-[1,1′-biphenyl]-4-carboxylic acid]"
4,≤ 10 µM,"CCOc1cc(-c2cccc(CCC(=O)O)c2)ccc1-c1nc2[nH]nnc2c(=O)[nH]1 [Compound 234, 3-(3′-ethoxy-4′-(7-oxo-6,7-dihydro-3H-[1,2,3]triazolo[4,5-d]pyrimidin-5-yl)-[1,1′-biphenyl]-3-yl)propanoic acid]"
5,≤ 10 µM,"COc1cc(-c2nc3[nH]nnc3c(=O)[nH]2)cc(OC)c1-c1ccc(C(=O)O)cc1 [Compound 196, 2′,6′-Dimethoxy-4′-(7-oxo-6,7-dihydro-3H-[1,2,3]triazolo[4,5-d]pyrimidin-5-yl)-[1,1′-biphenyl]-4-carboxylic acid]"
6,≤ 10 µM,"CCOC(=O)COc1cccc(-c2ccc(-c3nc4[nH]nnc4c(=O)[nH]3)c(OCC)c2)c1 [Compound 120, Ethyl 2-((3′-ethoxy-4′-(7-oxo-6,7-dihydro-3H-[1,2,3]triazolo[4,5-d]pyrimidin-5-yl)-[1,1′-biphenyl]-3-yl)oxy)acetate]"
7,≤ 10 µM,"O=C(O)c1ccc(-c2ccc(-c3nc4[nH]nnc4c(=O)[nH]3)c(OC3CCCC3)c2)nc1 [Compound 231, 6-(3-(Cyclopentyloxy)-4-(7-oxo-6,7-dihydro-3H-[1,2,3]triazolo[4,5-d]pyrimidin-5-yl)phenyl)nicotinic acid]"
8,≤ 10 µM,"CCOc1cc(-c2cccc(CC(C)C(=O)O)c2)ccc1-c1nc2[nH]nnc2c(=O)[nH]1 (single isomer, unassigned) [Compound 311, 3-(3′-ethoxy-4′-(7-oxo-6,7-dihydro-3H-[1,2,3]triazolo[4,5-d]pyrimidin-5-yl)-[1,1′-biphenyl]-3-yl)-2-methylpropanoic acid]"
9,≤ 10 µM,"Nc1cc(-c2nc3[nH]nnc3c(=O)[nH]2)ccc1-c1ccc(C(=O)O)cc1 [Compound 287, 2′-amino-4′-(7-oxo-6,7-dihydro-3H-[1,2,3]triazolo[4,5-d]pyrimidin-5-yl)-[1,1′-biphenyl]-4-carboxylic acid]"
10,≤ 10 µM,"CCOc1cc(-c2cccc(N)c2)ccc1-c1nc2[nH]nnc2c(=O)[nH]1 [Compound 197, 5-(3′-Amino-3-ethoxy-[1,1′-biphenyl]-4-yl)-3,6-dihydro-7H-[1,2,3]triazolo[4,5-d]pyrimidin-7-one]"
11,≤ 10 µM,"O=C(O)c1ccc(-c2ccc(-c3nc4[nH]nnc4c(=O)[nH]3)cc2[N+](=O)[O-])cc1 [Compound 286, 2′-nitro-4′-(7-oxo-6,7-dihydro-3H-[1,2,3]triazolo[4,5-d]pyrimidin-5-yl)-[1,1′-biphenyl]-4-carboxylic acid]"
12,≤ 10 µM,"O=C(O)CNc1cccc(-c2ccc(-c3nc4[nH]nnc4c(=O)[nH]3)c(OC3CCCC3)c2)c1 [Compound 225, (3′-(Cyclopentyloxy)-4′-(7-oxo-6,7-dihydro-3H-[1,2,3]triazolo[4,5-d]pyrimidin-5-yl)-[1,1′-biphenyl]-3-yl)glycine]"
13,≤ 10 µM,"CCOc1cc(-c2cccc([C@@H]3C[C@H]3C(=O)O)c2)ccc1-c1nc2[nH]nnc2c(=O)[nH]1 (single isomer, unassigned) [Compound 279, trans-2-(3′-ethoxy-4′-(7-oxo-6,7-dihydro-3H-[1,2,3]triazolo[4,5-d]pyrimidin-5-yl)-[1,1′-biphenyl]-3-yl)cyclopropane-1-carboxylic acid]"
14,≤ 10 µM,"CCOc1cc(-c2ccc(C(=O)O)c(C)c2)ccc1-c1nc2[nH]nnc2c(=O)[nH]1 [Compound 207, 3′-Ethoxy-3-methyl-4′-(7-oxo-6,7-dihydro-3H-[1,2,3]triazolo[4,5-d]pyrimidin-5-yl)-[1,1′-biphenyl]-4-carboxylic acid]"
15,≤ 10 µM,"CCOc1cc(-c2cc(O)cc(O[C@H](CC)C(=O)O)c2)ccc1-c1nc2[nH]nnc2c(=O)[nH]1 (single isomer, unassigned) [Compound 258]"
16,≤ 10 µM,"CCOc1cc(-c2ccc(C)c(CCC(=O)O)c2)ccc1-c1nc2[nH]nnc2c(=O)[nH]1 [Compound 321, 3-(3′-ethoxy-4-methyl-4′-(7-oxo-6,7-dihydro-3H-[1,2,3]triazolo[4,5-d]pyrimidin-5-yl)-[1,1′-biphenyl]-3-yl)propanoic acid]"
17,≤ 10 µM,"CCOc1cc(-c2cccc(CC3(C(=O)O)CCC3)c2)ccc1-c1nc2[nH]nnc2c(=O)[nH]1 [Compound 246, 1-((3′-ethoxy-4′-(7-oxo-6,7-dihydro-3H-[1,2,3]triazolo[4,5-d]pyrimidin-5-yl)-[1,1′-biphenyl]-3-yl)methyl)cyclobutane-1-carboxylic acid]"
18,≤ 10 µM,"CCOc1cc(-c2cccc([C@@H]3C[C@@H]3C(=O)O)c2)ccc1-c1nc2[nH]nnc2c(=O)[nH]1 (racemic) [Compound 306, rac-cis-2-(3′-ethoxy-4′-(7-oxo-6,7-dihydro-3H-[1,2,3]triazolo[4,5-d]pyrimidin-5-yl)-[1,1′-biphenyl]-3-yl)cyclopropane-1-carboxylic acid]"
19,≤ 10 µM,"CCOc1cc(-c2ccc(C(=O)O)c(N)c2)ccc1-c1nc2[nH]nnc2c(=O)[nH]1 [Compound 204, 3-Amino-3′-ethoxy-4′-(7-oxo-6,7-dihydro-3H-[1,2,3]triazolo[4,5-d]pyrimidin-5-yl)-[1,1′-biphenyl]-4-carboxylic acid]"
20,≤ 10 µM,"CCOc1cc(-c2cccc(CC3(C(=O)O)CC3)c2)ccc1-c1nc2[nH]nnc2c(=O)[nH]1 [Compound 244, 1-((3′-ethoxy-4′-(7-oxo-6,7-dihydro-3H-[1,2,3]triazolo[4,5-d]pyrimidin-5-yl)-[1,1′-biphenyl]-3-yl)methyl)cyclopropane-1-carboxylic acid]"
21,≤ 10 µM,"O=C(O)c1cc(O)cc(-c2ccc(-c3nc4[nH]nnc4c(=O)[nH]3)c(OC3CCCC3)c2)c1 [Compound 199, 3′-(Cyclopentyloxy)-5-hydroxy-4′-(7-oxo-6,7-dihydro-3H-[1,2,3]triazolo[4,5-d]pyrimidin-5-yl)-[1,1′-biphenyl]-3-carboxylic acid]"
22,≤ 10 µM,"O=C(O)c1ccc(-c2ccc(-c3nc4[nH]nnc4c(=O)[nH]3)cc2NC2CCCCC2)cc1 [Compound 289, 2′-(cyclohexylamino)-4′-(7-oxo-6,7-dihydro-3H-[1,2,3]triazolo[4,5-d]pyrimidin-5-yl)-[1,1′-biphenyl]-4-carboxylic acid]"
23,≤ 10 µM,"CCOc1cc(-c2cc(F)c(O)c(F)c2)ccc1-c1nc2[nH]nnc2c(=O)[nH]1 [Compound 203, 5-(3-Ethoxy-3′,5′-difluoro-4′-hydroxy-[1,1′-biphenyl]-4-yl)-3,6-dihydro-7H-[1,2,3]triazolo[4,5-d]pyrimidin-7-one]"
24,≤ 10 µM,"CCOc1cc(-c2cccc(/C=C/C(=O)O)c2)ccc1-c1nc2[nH]nnc2c(=O)[nH]1 [Compound 235, (E)-3-(3′-ethoxy-4′-(7-oxo-6,7-dihydro-3H-[1,2,3]triazolo[4,5-d]pyrimidin-5-yl)-[1,1′-biphenyl]-3-yl)acrylic acid]"
25,≤ 10 µM,"CCOc1cc(-c2cccc(NCCC(=O)O)c2)ccc1-c1nc2[nH]nnc2c(=O)[nH]1 [Compound 226, 3-((3′-Ethoxy-4′-(7-oxo-6,7-dihydro-3H-[1,2,3]triazolo[4,5-d]pyrimidin-5-yl)-[1,1′-biphenyl]-3-yl)amino)propanoic acid]"
26,≤ 10 µM,"CCOc1cc(-c2ccc(C(=O)O)c(OC)c2)ccc1-c1nc2[nH]nnc2c(=O)[nH]1 [Compound 206, 3′-Ethoxy-3-methoxy-4′-(7-oxo-6,7-dihydro-3H-[1,2,3]triazolo[4,5-d]pyrimidin-5-yl)-[1,1′-biphenyl]-4-carboxylic acid]"
27,≤ 10 µM,"CCOc1cc(-c2ccc(OC(C)C)c(CC(C)C(=O)O)c2)ccc1-c1nc2[nH]nnc2c(=O)[nH]1 (single isomer, unassigned) [Compound 313, 3-(3′-ethoxy-4-isopropoxy-4′-(7-oxo-6,7-dihydro-3H-[1,2,3]triazolo[4,5-d]pyrimidin-5-yl)-[1,1′-biphenyl]-3-yl)-2-methylpropanoic acid]"
28,≤ 10 µM,"CCOc1cc(-c2ccc(OC(C)C)c(CC(C)C(=O)O)c2)ccc1-c1nc2[nH]nnc2c(=O)[nH]1 (single isomer, unassigned) [Compound 314, 3-(3′-ethoxy-4-isopropoxy-4′-(7-oxo-6,7-dihydro-3H-[1,2,3]triazolo[4,5-d]pyrimidin-5-yl)-[1,1′-biphenyl]-3-yl)-2-methylpropanoic acid]"
29,≤ 10 µM,"CCOc1cc(-c2cc(O)cc(OC(CC)C(=O)O)c2)ccc1-c1nc2[nH]nnc2c(=O)[nH]1 (stereo not drawn) [Compound 257, 2-((3′-ethoxy-5-hydroxy-4′-(7-oxo-6,7-dihydro-3H-[1,2,3]triazolo[4,5-d]pyrimidin-5-yl)-[1,1′-biphenyl]-3-yl)oxy)butanoic acid]"

# Same assay, conditions: at 50 μM; Table 2
row,% inhibition at 50 μM,Structure (SMILES)
1,57% inhibition at,"CCOc1cc(-c2ccc(OCc3ccc(OC)cc3)c(NCC(=O)OC(C)(C)C)c2)ccc1-c1nc2[nH]nnc2c(=O)[nH]1 [Compound 221, tert-butyl (3′-ethoxy-4-((4-methoxybenzyl)oxy)-4′-(7-oxo-6,7-dihydro-3H-[1,2,3]triazolo[4,5-d]pyrimidin-5-yl)-[1,1′-biphenyl]-3-yl)glycinate]"
